How the values were obtained:
CatSper [1] = assay: Activity of steroids and modified steroids on CatSper activation (method not described); format: cell-based, human; settings: for activity relative to progesterone: effect of position 11 versus position 3 modification; for effect on CatSper activation: competing with progesterone
human sperm [2] = assay: Sperm hyperactivation: curvilinear velocity (VCL) of human sperm; format: cell-based; settings: for decrease of VCL compared to sperm treated with PregS alone: capacitated sperm; for change (increase) of VCL / reduction of VCL values in comparison to VCL in the presence of P4: capacitated spermatozoa; for change (increase) of VCL: compound alone; for reduction of VCL values in comparison to VCL in the presence of P4: stimulated with P4 + compound
Text: (§1) Pristimerin and lupeol decrease sperm hyperactivation in the presence of P4. Hyperactivated sperm motility is characterized by a highly asymmetrical bending of the sperm tail due to a CatSper-mediated rise in flagellar calcium concentration (15). Curvilinear velocity (VCL) is the average velocity of the sperm head through the sperm trajectory, which increases during capacitation. A CatSper-mediated calcium rise promotes hyperactivation and makes the sperm trajectory less linear, which results in an increase of VCL. Capacitation increases CatSper activity, which results in a higher percentage of sperm with hyperactivated motility. Thus, capacitated spermatozoa tend to have higher VCL values than non-capacitated. Since both P4 and PregS activate CatSper, while pristimerin and lupeol inhibit it, we explored whether VCL values of human sperm are affected in the presence of plant triterpenoids or steroid hormones. As expected, neither of the compounds changed VCL values of non-capacitated sperm cells. […] Stimulating capacitated sperm with PregS in combination with pristimerin or lupeol decreased VCL by 18% and 9%, respectively, compared to sperm, which were treated with PregS alone. […] Since CatSper is not only required for hyperactivation but also for basal motility, we sought to determine whether pristimerin and lupeol also affect sperm motility.

human sperm [3] = assay: Sperm motility: number/percentage of motile spermatozoa; format: cell-based; settings: for decrease of percentage of motile sperm: capacitated sperm
Text: as §1

CatSper [4] = assay: Electrophysiology recordings of inward monovalent currents through CatSper (ICatSper) of human sperm; format: cell-based; settings: for reduction of ICatSper stimulation compared to stimulation with P4 alone: co-application with P4, human spermatozoa; for reduction of ICatSper stimulation compared to stimulation with PregS alone: co-application with PregS
Text: 2-AG hydrolysis by monoacyl lipases, such as ABHD2, is required for CatSper activation. The plant triterpenoid pristimerin was reported to inhibit the activity of related monoacylglycerol lipase (MAGL) (9). […] To test this hypothesis, human spermatozoa were stimulated with pristimerin, followed by exposure to either a mixture of pristimerin and P4, or to a mixture of pristimerin and PregS. In these experiments we analyzed inward monovalent currents through CatSper (ICatSper) of human sperm. Electrophysiology recordings were performed as described in (14). […] Compared to stimulation with P4 or PregS alone, the ICatSper stimulation was reduced by 63% (pristimerin and P4) and by 48% (pristimerin and PregS) (7).
Another pharmacologically active plant triterpenoid, which affects sperm functions when orally administered to rats, is lupeol (8). Lupeol is similar in structure to steroid hormones. […] However, administration of lupeol with P4 or PregS led to an even stronger inhibition of ICatSper than pristimerin. Compared to CatSper stimulation elicited by P4 or PregS alone, CatSper currents were reduced by 71% and 68%, respectively, in combination with P4 or PregS (7).

rats = settings: orally administered to rats; cited from earlier work
[5] = PregS in combination with compound

Q: For progesterone-11-BSA, which “activity relative to progesterone” value (CatSper [1]) is on record?
A: inactive

Q: For progesterone-11-biotin, which “activity relative to progesterone” value (CatSper [1]) is on record?
A: inactive

Q: What does the source list for `C=C(C)[C@@H]1CC[C@]2(C)CC[C@]3(C)[C@H](CC[C@@H]4[C@@]5(C)CC[C@H](O)C(C)(C)[C@@H]5CC[C@]43C)[C@@H]12` [lupeol]?
A: decrease of VCL compared to sperm treated with PregS alone (human sperm [2]; [5]): 9%; change (increase) of VCL (human sperm [2]): remained unchanged; reduction of VCL values in comparison to VCL in the presence of P4 (human sperm [2]): 48%; change of VCL values (human sperm [2]; non-capacitated sperm, PregS in combination with compound): remained unchanged; change in number of motile spermatozoa (human sperm [3]; capacitated and non-capacitated, compound alone): remained unchanged; reduction of motile sperm (human sperm [3]; capacitated or non-capacitated sperm, co-stimulation with PregS): did not result in a significant reduction; decrease of percentage of motile sperm (human sperm [3]; P4 co-applied with compound): 19%; change of percentage of motile sperm (human sperm [3]; non-capacitated cells, P4 co-applied with compound): did not change; reduction of ICatSper stimulation compared to stimulation with P4 alone (CatSper [4]): 71%; reduction of ICatSper stimulation compared to stimulation with PregS alone (CatSper [4]; human spermatozoa): 68%; effect on basal ICatSper (CatSper [4]; compound alone, human spermatozoa): did not affect basal ICatSper; antifertility properties (rats): antifertility properties

Q: For `C[C@]12CCC(=O)C=C1CC[C@@H]1[C@@H]2[C@@H](O)C[C@@]2(C)[C@H]1CC[C@]2(O)C(=O)CO` [cortisol], which “effect on CatSper activation” value (CatSper [1]) is on record?
A: impair CatSper activation

Q: With “pregnenolone sulfate [PregS, reference compound]” as the molecule, how does the “change (increase) of VCL” value (human sperm [2]) read?
A: remained unchanged

Q: Which “activity relative to progesterone” value (CatSper [1]) does the source give for progesterone-3-BSA here?
A: as active as progesterone

Q: Which “effect on CatSper activation” value (CatSper [1]) does the source give for `C[C@]12CC[C@H]3[C@@H](CCC4=CC(=O)CC[C@@]43C)[C@@H]1CC[C@@H]2O` [testosterone] here?
A: impair CatSper activation

Q: With `CC(=O)[C@H]1CC[C@H]2[C@@H]3CCC4=CC(=O)CC[C@]4(C)[C@H]3CC[C@]12C` [P4, progesterone, reference compound] as the molecule, how does the “change (increase) of VCL” value (human sperm [2]) read?
A: 12%

Q: Which “decrease of VCL compared to sperm treated with PregS alone” value (human sperm [2]; [5]) does the source give for `COC(=O)[C@]1(C)CC[C@]2(C)CC[C@]3(C)C4=CC=C5C(=CC(=O)C(O)=C5C)[C@]4(C)CC[C@@]3(C)[C@@H]2C1` [pristimerin] here?
A: 18%

Q: And the “reduction of VCL values in comparison to VCL in the presence of P4” value (human sperm [2])?
A: 39%

Q: And the “decrease of percentage of motile sperm” value (human sperm [3]; P4 co-applied with compound)?
A: 19%

Q: And the “reduction of ICatSper stimulation compared to stimulation with P4 alone” value (CatSper [4])?
A: 63%

Q: What about the “reduction of ICatSper stimulation compared to stimulation with PregS alone” value (CatSper [4]; human spermatozoa) of the same molecule?
A: 48%

Q: For progesterone-3-biotin, which “activity relative to progesterone” value (CatSper [1]) is on record?
A: as active as progesterone

Q: For `CC#C[C@]1(O)CC[C@H]2[C@@H]3CCC4=CC(=O)CCC4=C3[C@@H](c3ccc(N(C)C)cc3)C[C@@]21C` [RU-486, mifepristione], which “activity relative to progesterone” value (CatSper [1]) is on record?
A: inactive

Q: With estrogen as the molecule, how does the “effect on CatSper activation” value (CatSper [1]) read?
A: impair CatSper activation
